In ChEMBL document CHEMBL5126669, “Discovery of 5,7-Dihydro-6H-pyrrolo[2,3-d]pyrimidin-6-ones as Highly Selective CDK2 Inhibitors” (ACS Med Chem Lett, 2022):

Tests used:
[1] = Oral bioavailability in Sprague-Dawley rat at 3 mg/kg measured upto 24 hrs by LC-MS/MS analysis; type: ADME, organism-based; conditions: in vivo
[2] = Metabolic stability in human liver microsomes assessed as compound oxidation at 5 uM measured upto 30 mins by HPLC/MS analysis; type: ADME, Microsome; conditions: liver microsomes, read-out: Drug metabolism
Cytochrome P450 2C8 = molecular target: T1, Cytochrome P450 2C8 (Homo sapiens, UniProt P10632); assay: Inhibition of CYP2C8 (unknown origin) at >25 uM; type: ADME
T1 sequence (P10632 whole entry): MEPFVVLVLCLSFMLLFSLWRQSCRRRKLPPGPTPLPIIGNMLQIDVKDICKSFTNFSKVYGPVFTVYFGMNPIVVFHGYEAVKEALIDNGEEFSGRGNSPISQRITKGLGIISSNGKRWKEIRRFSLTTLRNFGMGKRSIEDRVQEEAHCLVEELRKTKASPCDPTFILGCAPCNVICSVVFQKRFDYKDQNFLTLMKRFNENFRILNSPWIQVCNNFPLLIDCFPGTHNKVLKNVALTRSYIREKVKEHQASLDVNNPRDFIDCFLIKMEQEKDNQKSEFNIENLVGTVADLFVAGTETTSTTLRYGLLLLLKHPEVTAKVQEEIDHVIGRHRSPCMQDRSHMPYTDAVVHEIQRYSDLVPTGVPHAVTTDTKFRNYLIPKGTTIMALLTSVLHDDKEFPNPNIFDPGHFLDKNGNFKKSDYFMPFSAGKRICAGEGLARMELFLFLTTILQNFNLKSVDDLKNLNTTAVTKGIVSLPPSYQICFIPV

[3] = Metabolic stability in human liver microsomes assessed as compound demethylation at 5 uM measured upto 30 mins by HPLC/MS analysis; type: ADME, Microsome; conditions: 0.5 h
[4] = Metabolic stability in Cynomolgus monkey liver microsomes assessed as compound demethylation at 5 uM measured upto 30 mins by HPLC/MS analysis; type: ADME, Macaca fascicularis, Microsome; conditions: 0.5 h
[5] = AUC in Sprague-Dawley rat at 3 mg/kg, po measured upto 24 hrs by LC-MS/MS analysis; type: ADME, organism-based; parameters: dose 3 mg/kg, time < 24 hrs, route po; conditions: in vivo
[6] = Volume of distribution at steady state in Sprague-Dawley rat at 0.5 mg/kg, iv measured upto 24 hrs by LC-MS/MS analysis; type: ADME, organism-based; conditions: in vivo
[7] = Metabolic stability in Sprague-Dawley rat liver microsomes assessed as remaining parent compound at 5 uM measured upto 30 mins by HPLC/MS analysis; type: ADME, Microsome; conditions: 0.5 h
[8] = Cmax in Sprague-Dawley rat at 3 mg/kg, po measured upto 24 hrs by LC-MS/MS analysis; type: ADME, organism-based; parameters: dose 3 mg/kg, time < 24 hrs, route po; conditions: in vivo
Cytochrome P450 1A2 = molecular target: T2, Cytochrome P450 1A2 (Homo sapiens, UniProt P05177); assay: Inhibition of CYP1A2 (unknown origin) at >25 uM; type: ADME
T2 sequence (P05177 whole entry): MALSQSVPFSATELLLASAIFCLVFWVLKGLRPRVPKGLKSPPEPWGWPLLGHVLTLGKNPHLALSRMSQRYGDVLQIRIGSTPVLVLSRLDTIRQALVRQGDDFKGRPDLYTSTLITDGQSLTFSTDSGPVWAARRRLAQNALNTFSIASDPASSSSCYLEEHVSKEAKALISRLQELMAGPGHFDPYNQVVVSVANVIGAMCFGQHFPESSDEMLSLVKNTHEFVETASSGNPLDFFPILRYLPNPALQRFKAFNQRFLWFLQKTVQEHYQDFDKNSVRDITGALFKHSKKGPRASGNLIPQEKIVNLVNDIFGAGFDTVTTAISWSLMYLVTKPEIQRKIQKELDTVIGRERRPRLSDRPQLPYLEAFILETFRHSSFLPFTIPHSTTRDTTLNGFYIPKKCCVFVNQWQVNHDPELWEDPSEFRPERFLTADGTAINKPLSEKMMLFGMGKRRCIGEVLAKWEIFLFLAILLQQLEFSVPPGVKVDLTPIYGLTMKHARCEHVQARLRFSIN

[9] = Metabolic stability in human liver microsomes assessed as remaining parent compound at 5 uM measured upto 30 mins by HPLC/MS analysis; type: ADME, Microsome; conditions: liver microsomes, read-out: Stability
Cytochrome P450 2D6 = Cytochrome P450 2D6 (Homo sapiens, UniProt P10635); assay: Inhibition of CYP2D6 (unknown origin) at >25 uM; type: ADME
hERG (KCNH2) = hERG (KCNH2) (Homo sapiens, UniProt Q12809); assay: Displacement of [3H]Dofetilide from human ERG at 10 uM incubated for 24 hrs by filter binding assay relative to control; type: toxicity; conditions: probe [3H]dofetilide
[10] = Solubility of compound; type: physicochemical
Cytochrome P450 2B6 = molecular target: T3, Cytochrome P450 2B6 (Homo sapiens, UniProt P20813); assay: Inhibition of CYP2B6 (unknown origin) at >25 uM; type: ADME
T3 sequence (P20813 whole entry): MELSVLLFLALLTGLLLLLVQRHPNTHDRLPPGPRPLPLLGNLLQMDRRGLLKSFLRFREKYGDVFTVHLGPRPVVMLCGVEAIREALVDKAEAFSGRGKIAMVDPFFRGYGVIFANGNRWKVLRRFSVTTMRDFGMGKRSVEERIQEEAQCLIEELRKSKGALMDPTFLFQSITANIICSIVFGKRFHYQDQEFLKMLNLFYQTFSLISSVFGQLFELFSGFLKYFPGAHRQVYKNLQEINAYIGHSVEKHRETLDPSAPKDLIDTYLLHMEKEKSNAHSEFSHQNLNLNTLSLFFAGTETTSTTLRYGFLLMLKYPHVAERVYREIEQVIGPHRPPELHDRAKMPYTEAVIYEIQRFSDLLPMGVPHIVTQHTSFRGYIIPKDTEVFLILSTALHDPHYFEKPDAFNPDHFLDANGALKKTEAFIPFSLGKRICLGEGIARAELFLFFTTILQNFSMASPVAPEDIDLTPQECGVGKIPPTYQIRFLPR

[11] = Metabolic stability in Cynomolgus monkey liver microsomes assessed as compound oxidation at 5 uM measured upto 30 mins by HPLC/MS analysis; type: ADME, Macaca fascicularis, Microsome; conditions: 0.5 h
[12] = Intrinsic clearance in human liver microsomes at 1 uM measured upto 30 mins by LC/MS analysis; type: ADME, Microsome; conditions: read-out: CLH (converted)
[13] = Metabolic stability in Sprague-Dawley rat liver microsomes assessed as compound demethylation at 5 uM measured upto 30 mins by HPLC/MS analysis; type: ADME, Microsome; conditions: 0.5 h
Cytochrome P450 2C9 = Cytochrome P450 2C9 (Homo sapiens, UniProt P11712); assay: Inhibition of CYP2C9 (unknown origin) at >25 uM; type: ADME
Cytochrome P450 3A4 = Cytochrome P450 3A4 (Homo sapiens, UniProt P08684); assay: Inhibition of CYP3A4 (unknown origin) at >25 uM; type: ADME
[14] = Metabolic stability in Cynomolgus monkey liver microsomes assessed as remaining parent compound at 5 uM measured upto 30 mins by HPLC/MS analysis; type: ADME, Macaca fascicularis, Microsome; conditions: 0.5 h
[15] = Hepatic blood flow in Sprague-Dawley rat at 0.5 mg/kg, iv measured upto 24 hrs by LC-MS/MS analysis; type: ADME, organism-based; conditions: in vivo
[16] = Metabolic stability in Sprague-Dawley rat liver microsomes assessed as compound oxidation at 5 uM measured upto 30 mins by HPLC/MS analysis; type: ADME, Microsome; conditions: 0.5 h
Cytochrome P450 2C19 = Cytochrome P450 2C19 (Homo sapiens, UniProt P33261); assay: Inhibition of CYP2C19 (unknown origin) at >25 uM; type: ADME
[17] = molecular target: Cyclin-dependent kinase 2 (Homo sapiens, UniProt P24941); assay: Inhibition of CDK2 in human COV318 cells incubated for overnight in presence of human whole blood by HTRF assay; type: cell-based
Homo sapiens [18] = species on record: Homo sapiens; assay: Selectivity ratio of IC50 for inhibition of CDK4/cyclin D1 (unknown origin) to IC50 for inhibition recombinant human N-terminal GST-tagged full-length CDK2/Flag-tagged cyclinE1 expressed in baculovirus expression system
[19] = Volume of distribution at steady state in Cynomolgus monkey at 0.3 mg/kg, iv measured upto 24 hrs by LC-MS/MS analysis; type: ADME, organism-based, Macaca fascicularis; conditions: in vivo, read-out: Vdss
Homo sapiens [20] = species on record: Homo sapiens; assay: Selectivity ratio of IC50 for inhibition of CDK6/cyclin D1 (unknown origin) to IC50 for inhibition recombinant human N-terminal GST-tagged full-length CDK2/Flag-tagged cyclinE1 expressed in baculovirus expression system
[21] = Hepatic blood flow in Cynomolgus monkey at 0.3 mg/kg, iv measured upto 24 hrs by LC-MS/MS analysis; type: ADME, organism-based, Macaca fascicularis; conditions: in vivo
[22] = Oral bioavailability in Cynomolgus monkey at 2 mg/kg measured upto 24 hrs by LC-MS/MS analysis; type: ADME, organism-based, Macaca fascicularis; conditions: in vivo
Homo sapiens [23] = species on record: Homo sapiens; assay: Selectivity ratio of IC50 for inhibition of CDK4 (unknown origin) to IC50 for inhibition recombinant human N-terminal GST-tagged full-length CDK2/Flag-tagged cyclinE1 expressed in baculovirus expression system
[24] = molecular target: Cyclin-dependent kinase 2/cyclin E1 (Homo sapiens, UniProt P24941); assay: Inhibition of recombinant human N-terminal GST-tagged full-length CDK2/Flag-tagged cyclinE1 expressed in baculovirus expression system using eIF4E-binding protein-1 peptide as substrate incubated for 1 hr in presence of ATP by HTRF assay
Homo sapiens [25] = species on record: Homo sapiens; assay: Selectivity ratio of IC50 for inhibition of CDK9 (unknown origin) to IC50 for inhibition recombinant human N-terminal GST-tagged full-length CDK2/Flag-tagged cyclinE1 expressed in baculovirus expression system
[26] = Cmax in Cynomolgus monkey at 2 mg/kg, po measured upto 24 hrs by LC-MS/MS analysis; type: ADME, organism-based, Macaca fascicularis; parameters: dose 2 mg/kg, time < 24 hrs, route po; conditions: in vivo
Homo sapiens [27] = species on record: Homo sapiens; assay: Selectivity ratio of IC50 for inhibition of CDK7 (unknown origin) to IC50 for inhibition recombinant human N-terminal GST-tagged full-length CDK2/Flag-tagged cyclinE1 expressed in baculovirus expression system
[28] = AUC in Cynomolgus monkey at 2 mg/kg, po measured upto 24 hrs by LC-MS/MS analysis; type: ADME, organism-based, Macaca fascicularis; parameters: dose 2 mg/kg, time < 24 hrs, route po; conditions: in vivo
Homo sapiens [29] = species on record: Homo sapiens; assay: Selectivity ratio of IC50 for inhibition of CDK6 (unknown origin) to IC50 for inhibition recombinant human N-terminal GST-tagged full-length CDK2/Flag-tagged cyclinE1 expressed in baculovirus expression system
Homo sapiens [30] = species on record: Homo sapiens; assay: Selectivity ratio of IC50 for inhibition of CDK1 (unknown origin) to IC50 for inhibition recombinant human N-terminal GST-tagged full-length CDK2/Flag-tagged cyclinE1 expressed in baculovirus expression system

Chain of Cytochrome P450 3A4 (P08684 whole entry): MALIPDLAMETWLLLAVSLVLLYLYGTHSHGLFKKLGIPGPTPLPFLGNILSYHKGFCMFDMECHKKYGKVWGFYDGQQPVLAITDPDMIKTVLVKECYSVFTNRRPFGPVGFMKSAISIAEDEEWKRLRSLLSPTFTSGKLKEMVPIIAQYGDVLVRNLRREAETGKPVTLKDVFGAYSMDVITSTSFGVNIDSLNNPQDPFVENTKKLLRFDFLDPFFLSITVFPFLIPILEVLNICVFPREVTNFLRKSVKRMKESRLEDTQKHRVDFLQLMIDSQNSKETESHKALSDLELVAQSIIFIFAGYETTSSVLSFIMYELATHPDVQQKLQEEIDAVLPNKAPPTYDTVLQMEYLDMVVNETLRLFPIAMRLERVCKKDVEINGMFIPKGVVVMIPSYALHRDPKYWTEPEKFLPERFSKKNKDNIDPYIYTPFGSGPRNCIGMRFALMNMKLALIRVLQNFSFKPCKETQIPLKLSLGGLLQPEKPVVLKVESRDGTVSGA
Chain of hERG (KCNH2) (Q12809 whole entry): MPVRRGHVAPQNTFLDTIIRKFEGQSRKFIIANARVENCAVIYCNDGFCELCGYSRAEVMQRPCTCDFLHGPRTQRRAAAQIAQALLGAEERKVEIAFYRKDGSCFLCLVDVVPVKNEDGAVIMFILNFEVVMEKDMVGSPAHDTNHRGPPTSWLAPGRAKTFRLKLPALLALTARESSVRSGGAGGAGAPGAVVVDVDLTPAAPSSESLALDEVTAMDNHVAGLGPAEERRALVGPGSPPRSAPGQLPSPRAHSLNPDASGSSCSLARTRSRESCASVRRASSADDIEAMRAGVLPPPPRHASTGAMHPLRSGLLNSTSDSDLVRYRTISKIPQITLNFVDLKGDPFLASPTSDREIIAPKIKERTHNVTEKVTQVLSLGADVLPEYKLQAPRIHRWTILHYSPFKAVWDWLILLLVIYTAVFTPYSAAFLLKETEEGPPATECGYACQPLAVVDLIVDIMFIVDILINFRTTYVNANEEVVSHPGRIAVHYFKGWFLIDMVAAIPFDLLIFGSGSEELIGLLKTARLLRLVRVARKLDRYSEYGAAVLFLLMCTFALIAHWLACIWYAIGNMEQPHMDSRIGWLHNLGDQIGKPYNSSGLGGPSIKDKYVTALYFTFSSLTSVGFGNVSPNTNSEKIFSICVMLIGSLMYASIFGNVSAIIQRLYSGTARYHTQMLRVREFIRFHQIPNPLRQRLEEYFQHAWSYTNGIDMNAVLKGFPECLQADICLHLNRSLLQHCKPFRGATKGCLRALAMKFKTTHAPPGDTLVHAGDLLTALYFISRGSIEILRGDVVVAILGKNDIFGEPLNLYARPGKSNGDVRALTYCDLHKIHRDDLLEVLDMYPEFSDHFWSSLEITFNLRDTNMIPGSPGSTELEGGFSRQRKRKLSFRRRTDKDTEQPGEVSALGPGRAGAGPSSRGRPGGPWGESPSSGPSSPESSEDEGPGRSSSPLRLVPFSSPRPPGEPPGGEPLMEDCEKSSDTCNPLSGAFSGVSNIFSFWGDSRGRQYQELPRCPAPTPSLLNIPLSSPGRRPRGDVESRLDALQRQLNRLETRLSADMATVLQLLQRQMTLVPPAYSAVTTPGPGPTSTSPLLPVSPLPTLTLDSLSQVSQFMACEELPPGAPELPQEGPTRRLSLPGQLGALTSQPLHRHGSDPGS
Chain of Cytochrome P450 2C9 (P11712 whole entry): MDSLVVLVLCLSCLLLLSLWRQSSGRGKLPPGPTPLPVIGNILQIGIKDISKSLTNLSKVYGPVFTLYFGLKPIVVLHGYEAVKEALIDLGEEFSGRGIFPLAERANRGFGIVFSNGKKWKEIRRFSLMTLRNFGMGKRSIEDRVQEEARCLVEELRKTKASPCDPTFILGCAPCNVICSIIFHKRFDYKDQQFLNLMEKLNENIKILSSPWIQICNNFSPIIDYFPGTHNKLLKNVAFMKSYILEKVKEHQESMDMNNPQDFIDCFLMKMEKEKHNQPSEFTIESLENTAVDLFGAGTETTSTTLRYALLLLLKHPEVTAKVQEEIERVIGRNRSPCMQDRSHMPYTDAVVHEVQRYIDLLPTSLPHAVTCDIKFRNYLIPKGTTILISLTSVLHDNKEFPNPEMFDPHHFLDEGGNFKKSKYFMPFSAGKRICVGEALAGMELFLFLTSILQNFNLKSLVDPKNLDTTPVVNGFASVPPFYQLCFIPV
Chain of Cytochrome P450 2C19 (P33261 whole entry): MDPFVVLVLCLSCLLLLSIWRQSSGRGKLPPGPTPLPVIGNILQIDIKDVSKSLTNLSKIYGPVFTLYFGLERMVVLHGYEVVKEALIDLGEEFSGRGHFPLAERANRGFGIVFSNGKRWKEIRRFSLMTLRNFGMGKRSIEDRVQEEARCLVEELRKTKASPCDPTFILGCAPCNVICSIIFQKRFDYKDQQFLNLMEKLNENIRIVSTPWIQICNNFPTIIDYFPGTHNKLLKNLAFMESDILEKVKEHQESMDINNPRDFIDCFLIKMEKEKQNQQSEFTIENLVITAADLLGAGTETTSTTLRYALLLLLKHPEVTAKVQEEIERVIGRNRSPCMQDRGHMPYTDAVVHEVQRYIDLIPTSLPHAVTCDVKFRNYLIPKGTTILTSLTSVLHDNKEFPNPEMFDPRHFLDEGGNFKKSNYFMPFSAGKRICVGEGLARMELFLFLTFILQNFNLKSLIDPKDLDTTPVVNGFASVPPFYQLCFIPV
Chain of Cytochrome P450 2D6 (P10635 whole entry): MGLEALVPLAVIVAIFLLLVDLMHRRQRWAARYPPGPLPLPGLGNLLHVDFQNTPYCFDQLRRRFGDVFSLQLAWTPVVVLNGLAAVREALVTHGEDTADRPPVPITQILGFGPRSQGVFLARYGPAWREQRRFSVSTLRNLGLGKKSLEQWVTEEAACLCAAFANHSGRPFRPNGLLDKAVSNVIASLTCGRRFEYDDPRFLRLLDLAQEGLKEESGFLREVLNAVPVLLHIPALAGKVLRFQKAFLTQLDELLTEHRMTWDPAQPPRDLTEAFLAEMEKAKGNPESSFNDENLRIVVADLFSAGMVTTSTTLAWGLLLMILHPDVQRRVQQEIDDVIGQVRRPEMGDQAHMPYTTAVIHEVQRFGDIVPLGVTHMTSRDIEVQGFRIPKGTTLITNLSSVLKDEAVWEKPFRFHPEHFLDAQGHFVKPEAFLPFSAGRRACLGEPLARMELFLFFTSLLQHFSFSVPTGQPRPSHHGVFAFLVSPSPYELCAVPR

SMILES | bioavailability [1] [%] | inhibition (INH) (Cytochrome P450 2C8) | AUC at 24 h [5] [µM·h] | Cmax [8] [nM] | inhibition (INH) (Cytochrome P450 1A2) | inhibition (INH) (Cytochrome P450 2D6) | inhibition at 24 h, 10 µM (hERG (KCNH2)) [%] | solubility [10] [µg/mL] | inhibition (INH) (Cytochrome P450 2B6) | predicted hepatic clearance at 1 µM [12] [mL/min/kg] | inhibition (INH) (Cytochrome P450 2C9) | inhibition (INH) (Cytochrome P450 3A4) | QH [15] [%] | inhibition (INH) (Cytochrome P450 2C19) | IC50 [17] [nM] | other results
[2H]C([2H])([2H])NS(=O)(=O)c1ccc(Nc2ncc3c(n2)N([C@@H]2CCC[C@@]2(C)O)C(=O)C32CC2)cc1 (relative stereo) | 92 | Active | 0.666 | 752 | Active | Active | 16 | > 400 | Active | < 8.33 | Active | Active | > 100 | Active | 746 | metabolised at 0.5 h, 5 µM [2]: 5%; Drug metabolism [3]: 10%; Drug metabolism [4]: 71%; Vdss ([6]; iv, 0.5 mg/kg, 24 h): 3.2 L/kg; Stability [7]: 4.4%; remaining at 0.5 h, 5 µM [9]: 85%; Drug metabolism [11]: 12%; Drug metabolism [13]: 23%; Stability [14]: 20%; Drug metabolism [16]: 54%
Cn1cc(S(=O)(=O)N2CCC(Nc3ncc4c(n3)N([C@@H]3CCC[C@@H](O)C3)C(=O)C43CC3)CC2)cn1 | 59 | Active | 1.13 | 562 | Active | Active | 7.2 | > 400 | Active | 16.7 | Active | Active | 96 | Active | 316 | Ratio IC50 (Homo sapiens [18]): 110; Vd [19]: 1.2 L/kg; Ratio IC50 (Homo sapiens [20]): 35; QH [21]: 48%; bioavailability [22]: 12%; Ratio IC50 (Homo sapiens [23]): 110; Vd ([6]; Sprague-Dawley, read-out: Vdss): 2 L/kg; IC50 [24]: 2 nM; Ratio IC50 (Homo sapiens [25]): 2500; Cmax [26]: 56 nM; Ratio IC50 (Homo sapiens [27]): 1100; AUC at 24 h [28]: 0.388 µM·h; Ratio IC50 (Homo sapiens [29]): 35; Ratio IC50 (Homo sapiens [30]): 660
